For assay [1], the system named is 2 mm diameter mouse ear hole. Description: ear hole trauma mouse model, 2 mm diameter ear puncher. It is filed as in vivo, C57BL/6 mice. The following applies: for healing of 2 mm ear hole: ferroptosis/autophagy inhibitors 10-20 mg/kg, measured 21 days after damage, n≥8 (FIG. 3); for healing of the 2 mm ear hole: treated 21 days, vs Vehicle (FIG. 1B).
The subject of assay [2] is ISG genes.
Assay [3] concerns 4 mm diameter mouse ear hole. Further details: species or system mice. The following applies: in vivo.
The test system of assay [4] is overall protein translation. Type of assay: cell-based.

Read-outs that look alike come from different tables or passages of the source.

Take `Cc1cc(Nc2cc(Cl)nc(Oc3ccc([N+](=O)[O-])cc3)n2)n[nH]1` [Autophinib]: the “healing of 2 mm ear hole” value in assay [1] is listed as “Neither inhibitors of ferroptosis nor autophagy could promote the healing of the ear hole like CHX”.

As for `O=C(Nc1ccc(C(O)(C(F)(F)F)C(F)(F)F)cc1)c1ccc(C(F)(F)F)cc1` [SR1078], the “healing of ear holes” value in assay [1] (SR1078 1 mg/kg, 21 days after trauma, n≥7 (FIG. 10A)) was “significantly inhibited regeneration”.

Turning to `O=C1OC(COc2ccccc2[N+](=O)[O-])CC1Cc1ccccc1` (stereo not shown) [3BDO], the “healing of 2 mm ear hole” value in assay [1] was “Neither inhibitors of ferroptosis nor autophagy could promote the healing of the ear hole like CHX”.

Consider `O=S(=O)(Nc1ccc(C(O)(C(F)(F)F)C(F)(F)F)cc1)c1cccs1` [SR3335], for which the “healing of ear holes” value in assay [1] (SR3335 10 mg/kg, 21 days after trauma, n≥7 (FIG. 10A)) is reported as “promoted the ear holes”. The “HE staining of ear hole” value in assay [1] (SR3335 (FIG. 10D)) is given as “the wound was almost completely healed”. Besides, the “Masson staining of ear hole” value in assay [1] (SR3335, 21 days of treatment (FIG. 10E)) is “regeneration structures of cartilage, hair follicles, sebaceous glands (arrows), and muscles”. In addition, the ISG gene expression entry in assay [2] (fibroblasts and macrophages) is on record as “promote the ISG gene expression”.

Take `C[C@@H]1C[C@@H]([C@H](O)CC2CC(=O)NC(=O)C2)C(=O)[C@@H](C)C1` [CHX, 4-((R)-2-((1S,3S,5S)-3,5-dimethyl-2-oxocyclohexyl)-2-hydroxyethyl)piperidine-2,6-dione]: the “wound area of 4 mm ear hole” value in assay [3] was “significantly reduced”. Also, the “HE staining of auricle tissue” value is “the trauma had completely healed” in assay [1] (CHX 20 mg/kg (FIG. 1E)); “healed the tissue after damage and formed granulation tissue” in assay [1] (CHX 20 mg/kg, 15th day after trauma (FIG. 1F)). In assay [1] (CHX 20 mg/kg, 7 days, basal cells (FIG. 1G)), the “KI67 immunohistochemical staining of auricle tissue” value is reported as “expressed a large amount of KI67”. The “closure of 2 mm ear hole wound” value is recorded as “completely closed” in assay [1] (CHX 20 mg/kg, 30 days (FIG. 1D)) and “completely closed” in assay [1] (CHX greater than 8 mg/kg, after three weeks of treatment (FIG. 1C)). The “HE staining of auricle tissue, regenerated tissues” value in assay [1] (CHX 20 mg/kg, 180 days after ear hole closure (FIG. 1H)) was “regeneration of tissues and tissue derivatives such as hair follicles, glands, cartilage, muscles and blood vessels”. Besides, in assay [1] (CHX 20 mg/kg), the “healing of the 2 mm ear hole” value is “significantly promote the healing of the ear hole”. The “closure of 2 mm ear hole” value in assay [1] (each concentration of CHX, intraperitoneal, n≥8 (FIG. 1C)) is “promoted the closure of a 2 mm diameter of ear holes”. In addition, the “healing effect by administration manner” value in assay [1] (oral gavage and intraperitoneal injection, 3 weeks (FIG. 1I)) was “different manners of administration had the effect of promoting regeneration”. Moreover, the ISG gene expression entry in assay [2] (fibroblasts and macrophages) is “upregulate the expression of classical ISGs”.

Turning to `O=C1N[C@@H]2C(=C[C@H](O)[C@@H](O)[C@H]2O)c2cc3c(c(O)c21)OCO3` [Narciclasine], the “inhibition of overall protein translation” value in assay [4] is reported as “significantly inhibit the overall protein translation”. The “regenerated tissues in closed ear holes (histochemical, Masson)” value in assay [1] (Narciclasine 1-3 mg/kg (FIG. 5F, 5G)) is “regenerate tissues and tissue derivatives such as hair follicles, glands, cartilage and muscles”. In addition, the “healing of 2 mm ear holes” value in assay [1] (Narciclasine 1-3 mg/kg, intraperitoneal (FIG. 5D, 5E)) is “significantly promote the healing of 2 mm ear holes”. The ISG gene expression entry in assay [2] (fibroblasts and macrophages) is recorded as “significantly promoted the expression of ISG genes”.

With `COc1ccc(C[C@H]2NC[C@H](O)[C@H]2OC(C)=O)cc1` [Ani, anisomycin], the “healing of the 2 mm ear hole” value in assay [1] (Ani 10 mg/kg) is given as “significantly promote the healing of the ear hole”.

As to `O=C1N[C@H]2[C@H](O)[C@H](O)[C@@H](O)[C@H](O)[C@@H]2c2cc3c(c(O)c21)OCO3` [Pancratistatin], the “inhibition of overall protein translation” value in assay [4] was “significantly inhibit overall protein translation”. In addition, in assay [1] (mouse, in vivo), the “HE and Masson staining of ear hole” value was “completely closed and identified as a regeneration event”; the “closure of 2 mm ear hole” value is on record as “the ear hole was completely closed”. Moreover, in assay [2], the ISG gene expression result is “significantly promote the ISG gene expression”.

As to `O=S(=O)(NCCN1CCNCC1)c1ccc(NC2CCCCC2)c(NCc2ccccc2)c1` [UAMC-3203], the “healing of 2 mm ear hole” value in assay [1] was “Neither inhibitors of ferroptosis nor autophagy could promote the healing of the ear hole like CHX”.

Take `Cn1nc(C(C)(C)C)cc1NC(=O)Nc1ccc(Oc2ccncc2)cc1` [MAPK13-IN-1]: the “HE staining of ear hole” value in assay [1] (MAPK13-IN-1 20 mg/kg (FIG. 9C)) is given as “the trauma was almost completely healed”. Moreover, the “Masson staining of ear hole” value in assay [1] (MAPK13-IN-1, 21 days of treatment (FIG. 9D)) is listed as “Obvious regeneration of muscle fiber bundles was observed”. Moreover, the ISG gene expression result in assay [2] (FIG. 9B, cell type not given) is given as “promote the ISG gene expression”.

B1: S100A8/A9: S100A8/A9 heterodimer (Biolegend, 765502), alarmin protein (protein, UniProt P05109 1-93; P06702 1-114, looked up)
Protein S100-A8: MLTELEKALNSIIDVYHKYSLIKGNFHAVYRDDLKKLLETECPQYIRKKGADVWFKELDINTDGAVNFQEFLILVIKMGVAAHKKSHEESHKE
Protein S100-A9: MTCKMSQLERNIETIINTFHQYSVKLGHPDTLNQGEFKELVRKDLQNFLKKENKNEKVIEHIMEDLDTNADKQLSFEEFIMLMARLTWASHEKMHEGDEGPGHHHKPGLGEGTP
On to B1, for which the “healing of ear holes” value in assay [1] (S100A8/A9 12.5 μg/kg ip every two days, 35th day after damage (FIG. 8C)) is listed as “significantly promoted the healing of the ear holes”. In assay [1] (S100A8/A9 12.5 μg/kg, 35th day after damage), the “complete closure of ear holes” value is reported as “one of the ear holes was completely closed”. The “HE and Masson staining, regenerated structures” value in assay [1] (S100A8/A9 (FIG. 8D)) was “regeneration of various tissue structures, such as epidermis, dermis, hair follicles, glands, cartilage”. In addition, the ISG gene expression result in assay [2] (5 ng/ml, fibroblasts and macrophages (FIG. 8A, 8B)) is “significantly promote the ISG gene expression”.

B2: interferon (IFN) γ: cytokine interferon γ (protein, UniProt P01579 24-161, looked up)
Interferon gamma: QDPYVKEAENLKKYFNAGHSDVADNGTLFLGILKNWKEESDRKIMQSQIVSFYFKLFKNFKDDQSIQKSVETIKEDMNVKFFNSNKKKRDDFEKLTNYSVTDLNVQRKAIHELIQVMAELSPAAKTGKRKRSQMLFRG
Regarding B2, the “healing of ear holes” value in assay [1] (IFNγ 50 μg/kg ip once every two days, 35th day after damage (FIG. 7C)) is “significantly promoted the healing of ear holes after damage”. Besides, in assay [2] (10 ng/ml, fibroblasts and macrophages (FIG. 7A, 7B)), the ISG gene expression result is “significantly promote the ISG gene expression”.

These data come from patent publication US20250367183A1, “SUBSTANCE FOR PROMOTING REGENERATION AND REPAIR OF ORGANS OF MAMMALS AND USE THEREOF” (INSTITUTE OF ZOOLOGY, CHINESE ACADEMY OF SCIENCES, priority 2022, published 2025).
